Test results: patent US11123357B2, “Methods and compositions for treating oral mucositis” (Lakewood Amedex, Inc., priority 2018, dated 2021)

Assays:
[1] = tested on: oral mucositis induced by acute radiation; assay: Oral mucositis induced by acute radiation in hamsters (blinded mucositis scoring); assay type: in vivo, Syrian Golden Hamsters; parameters: key to peak mean mucositis score: 0 = normal, 5 = severe ulceration (photographic scale); conditions: for % Days ≥ 3 / Days < 3 (animal days with mucositis score <3) / Days ≥ 3 (animal days with mucositis score ≥3): through Day 28
From the text: The objective of the study was to test the efficacy of Nu-8 in the treatment of oral mucositis induced by acute radiation in hamsters.
Normal male Syrian Golden Hamsters (Charles River Laboratories), aged 5 to 6 weeks, with average body weight (±SD) of 92.83±3.36 g at study commencement, were used. Animals were individually numbered using an ear punch and housed in small groups. Animals were acclimatized prior to study commencement. During this period, the animals were observed daily in order to reject animals that were in poor condition.
Animals were randomly and prospectively divided into three (3) groups of eight (8) animals each prior to irradiation. Each animal was identified by an ear punch corresponding to an individual number. A cage card was used to identify each cage or label marked with the study number (LKW-01), treatment group number and animal numbers.
Formulation: • 1. Make fresh daily. Weigh out necessary amount of compound and dissolve in normal saline. Titrate with citric acid to bring pH of solution down to approximate 3.5 (pH range 3 to 4). • 2. The vehicle administered to animals in Group 1 was also titrated with citric acid to a pH of ˜3.5 (pH range 3 to 4).
Mucositis was induced using a single of radiation (40 Gy) administered on Day 0. Radiation was generated with a 160-kilovolt potential (18.75-ma) source at a focal distance of 10 cm, hardened with a 3.0 mm Al filtration system. Irradiation targeted the left buccal pouch mucosa at a rate of 2-2.5 Gy/minute. Prior to irradiation, animals were anesthetized with an intraperitoneal injection of ketamine (160 mg/kg) and xylazine (8 mg/kg). The left buccal pouch was everted, fixed and isolated using a lead shield.
Starting on Day 6 and continuing every second day thereafter (Days 8, 10, 12, 14, 16, 18, 20, 22, 24, 26, 28) each animal was photographed and evaluated for mucositis scoring. For the evaluation of mucositis, the animals were anesthetized with an inhalation anesthetic and the left pouch everted. Mucositis was scored visually by comparison to a validated photographic scale (FIGS. 1A-1F), ranging from 0 for normal, to 5 for severe ulceration (clinical scoring). In descriptive terms, this scale is defined as follows: […]
A score of 1-2 is considered to represent a mild stage of the disease, whereas a score of 3-5 is considered to indicate moderate to severe ulcerative mucositis. Following visual clinical scoring, a photograph was taken of each animal's mucosa using a standardized technique. At the conclusion of the experiment, the photographs were randomly numbered and scored by two independent, trained observers who graded the images in blinded fashion using the above-described scale (blinded scoring). For each photograph, the actual blinded score was based on the average of the 2 observers' scores. Only the scores from the blinded, photographic evaluation were reported and used for statistical analyses. Hamsters reaching a mucositis severity score of 4 or higher received buprenorphine (0.5 mg/kg) SC twice a day for 48 hours or until score dropped below 4. Statistical Analyses
Using the blinded photographs, statistical differences between treatment groups were determined using Mann-Whitney Rank Sum test and chi-square analysis with a critical value of 0.05. It was anticipated that up to 10% animal death may occur, primarily as a result of the administration of anesthetics. However, the number of animals expected to remain alive at Day 28 (6 per treatment group) was considered acceptable for statistical evaluation.
The difference in the number of days hamsters in each group have severe mucositis (score ≥3) was analyzed. On each day the animals were scored (evaluation day), the number of animals with a blinded mucositis score of ≥3 in each treatment group was compared to the Vehicle control group. Differences were analyzed on a daily as well as a cumulative basis. […]

[2] = Mean daily percent body weight change in irradiated hamsters; assay type: in vivo, Syrian Golden Hamsters; conditions: Group 3 (10% Nu-8, TID topical); p<0.05
From the text: The mean daily percent body weight change data are shown in FIG. 2 for animals in all groups. Animals steadily gained weight throughout the duration of the study.

## CCCCOP(=O)(O)OC[C@H]1O[C@@H](n2ccc(N)nc2=O)C[C@@H]1OP(=O)(O)OCCCC [Nu-8, ((2R,3S,5R)-5-(4-amino-2-oxopyrimidin-1(2H)-yl)-3-((butoxyoxidophosphor-yl)oxy)tetrahydrofuran-2-yl)methyl butyl phosphate]
[1]; 1% Nu-8 (Group 2)
  days of significant improvement in mucositis scores vs. Vehicle (Mann-Whitney rank sum): one day of significant improvement
[1]; 1% Nu-8, TID topical
  Chi Sq vs. Vehicle (animal days with score ≥3): 2.094
  % Days ≥ 3: 40.63%
  Days < 3 (animal days with mucositis score <3): 57
  Days ≥ 3 (animal days with mucositis score ≥3): 39
[1]; 1% Nu-8, TID topical, Day 6
  Percent Ulceration by Day (Score ≥ 3): 0.0%
[1]; 1% Nu-8, TID topical, Day 8
  Percent Ulceration by Day (Score ≥ 3): 0.0%
[1]; 1% Nu-8, TID topical, Day 10
  Percent Ulceration by Day (Score ≥ 3): 0.0%
[1]; 1% Nu-8, TID topical, Day 12
  Percent Ulceration by Day (Score ≥ 3): 0.0%
[1]; 1% Nu-8, TID topical, Day 14
  Percent Ulceration by Day (Score ≥ 3): 12.5%
[1]; 1% Nu-8, TID topical, Day 16
  Percent Ulceration by Day (Score ≥ 3): 50.0%
[1]; 1% Nu-8, TID topical, Day 18
  Percent Ulceration by Day (Score ≥ 3): 87.5%
[1]; 1% Nu-8, TID topical, Day 20
  Percent Ulceration by Day (Score ≥ 3): 87.5%
[1]; 1% Nu-8, TID topical, Day 22
  Percent Ulceration by Day (Score ≥ 3): 87.5%
[1]; 1% Nu-8, TID topical, Day 24
  Percent Ulceration by Day (Score ≥ 3): 87.5%
[1]; 1% Nu-8, TID topical, Day 26
  Percent Ulceration by Day (Score ≥ 3): 50.0%
[1]; 1% Nu-8, TID topical, Day 28
  Percent Ulceration by Day (Score ≥ 3): 25.0%
[1]; 1% Nu-8, TID topical, on Day 18
  peak mean mucositis score: 2.88±0.13
[1]; 10% Nu-8 (Group 3)
  days of significant improvement in mucositis scores vs. Vehicle (Mann-Whitney rank sum): multiple days of significant improvement
[1]; 10% Nu-8, TID topical
  Chi Sq vs. Vehicle (animal days with score ≥3): 30.762
  disease severity in comparison to vehicle-dosed animals: robust mitigation of disease severity
  % Days ≥ 3: 11.90%
  Days < 3 (animal days with mucositis score <3): 74
  Days ≥ 3 (animal days with mucositis score ≥3): 10
[1]; 10% Nu-8, TID topical, Day 6
  Percent Ulceration by Day (Score ≥ 3): 0.0%
[1]; 10% Nu-8, TID topical, Day 8
  Percent Ulceration by Day (Score ≥ 3): 0.0%
[1]; 10% Nu-8, TID topical, Day 10
  Percent Ulceration by Day (Score ≥ 3): 0.0%
[1]; 10% Nu-8, TID topical, Day 12
  Percent Ulceration by Day (Score ≥ 3): 0.0%
[1]; 10% Nu-8, TID topical, Day 14
  Percent Ulceration by Day (Score ≥ 3): 12.5%
[1]; 10% Nu-8, TID topical, Day 16
  Percent Ulceration by Day (Score ≥ 3): 25.0%
[1]; 10% Nu-8, TID topical, Day 18
  Percent Ulceration by Day (Score ≥ 3): 25.0%
[1]; 10% Nu-8, TID topical, Day 20
  Percent Ulceration by Day (Score ≥ 3): 25.0%
[1]; 10% Nu-8, TID topical, Day 22
  Percent Ulceration by Day (Score ≥ 3): 25.0%
[1]; 10% Nu-8, TID topical, Day 24
  Percent Ulceration by Day (Score ≥ 3): 12.5%
[1]; 10% Nu-8, TID topical, Day 26
  Percent Ulceration by Day (Score ≥ 3): 0.0%
[1]; 10% Nu-8, TID topical, Day 28
  Percent Ulceration by Day (Score ≥ 3): 0.0%
[1]; 10% Nu-8, TID topical, on Days 16 & 18
  peak mean mucositis score: 2.29±0.18
[1]; 10% Nu-8, chi-square analysis
  percentage of days with a score of ≥3 in comparison to the Vehicle control group: statistically different
[1]; both dose concentrations (1% and 10%), numerous days
  percent ulceration in comparison to vehicle-dosed animal: percent ulceration that was lower in comparison to vehicle-dosed animal
[1]; both groups treated with Nu-8 (1% and 10%), more so with 10%
  disease onset (mean daily mucositis scores): modest attenuation of disease onset
[2]
  mean percent weight change vs. vehicle group (AUC analysis, one-way ANOVA): statistically significant lower mean percent weight change
